Assay results reported in patent US8716475B2, “2-aminopyrimidine modulators of the histamine H4 receptor” (Janssen Pharmaceutica NV, priority 2007, dated 2014).

target: T1, human H4 receptor (Homo sapiens, UniProt Q9H3N8); assay: Binding Assay on Recombinant Human Histamine H4 Receptor; details: Table 1; [3H] histamine competition binding, membranes of SK-N-MC cells transfected with human H4 receptor; average of results
T1 construct: expressed in transfected cells
Method in brief: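 Radioligand binding used membranes from SK-N-MC cells stably or transiently expressing human H4, prepared in 50 mM Tris/5 mM EDTA. Nonspecific binding was defined with 100 μM histamine. Bound radioactivity was counted after filtration on PEI-treated GF/C filters, and ">" values are the highest concentration tested.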

Row | Compound | Ki
1 | CCc1cc(N2C[C@H]3CNC[C@H]3C2)nc(N)n1 [Example 38, 4-Ethyl-6-(cis-hexahydro-pyrrolo[3,4-c]pyrrol-2-yl)-pyrimidin-2-ylamine] | 559 nM
2 | Nc1nc(C2CCC2)cc(N2CC3CCCNC3C2)n1 (stereo not drawn) [Example 50, 4-Cyclobutyl-6-(cis-octahydro-pyrrolo[3,4-b]pyridin-6-yl)-pyrimidin-2-ylamine] | 3 nM
3 | Nc1nc2c(c(N3C[C@@H]4C[C@H]3CN4)n1)CCCC2 [Example 73, (S,S)-4-(2,5-Diaza-bicyclo[2.2.1]hept-2-yl)-5,6,7,8-tetrahydro-quinazolin-2-ylamine] | > 10000 nM
4 | Nc1nc(C2CCOC2)cc(N2CCNCC2)n1 (stereo not drawn) [Example 56, 4-piperazin-1-yl-6-(tetrahydro-furan-3-yl)-pyrimidin-2-ylamine] | 20 nM
5 | Nc1nc(C2CCC2)cc(N2C[C@H]3CCCN[C@H]3C2)n1 [Example 51, (R,R)-(4-Cyclobutyl-6-cis-octahydro-pyrrolo[3,4-b]pyridin-6-yl)-pyrimidin-2-ylamine] | 3 nM
6 | CNC1CN(c2cc(C(C)C)nc(N)n2)CC1O (stereo not drawn) [Example 13, trans-1-(2-Amino-6-isopropyl-pyrimidin-4-yl)-4-methylamino-pyrrolidin-3-ol] | 631 nM
7 | CN[C@@H]1CCN(c2cc(C3CC3)nc(N)n2)C1 [Example 41, (R)-(4-Cyclopropyl-6-3-methylamino-pyrrolidin-1-yl)-pyrimidin-2-ylamine] | 28 nM
8 | CN1CCN(c2cc(C3CCC3)nc(N)n2)CC1 [Example 44, 4-Cyclobutyl-6-(4-methyl-piperazin-1-yl)-pyrimidin-2-ylamine] | 1 nM
9 | CC(C)c1cc(N2C[C@@H]3C[C@H]2CN3)nc(N)n1 [Example 14, (S,S)-4-(2,5-Diaza-bicyclo[2.2.1]hept-2-yl)-6-isopropyl-pyrimidin-2-ylamine] | 673 nM
10 | CCc1cc(N2CC[C@@H](NC)C2)nc(N)n1 [Example 36, (R)-4-Ethyl-6-(3-methylamino-pyrrolidin-1-yl)-pyrimidin-2-ylamine] | 21 nM
11 | CC(C)c1cc(N2C[C@H]3CCN[C@H]3C2)nc(N)n1 [Example 17, (R,R)-4-(Hexahydro-pyrrolo[3,4-b]pyrrol-5-yl)-6-isopropyl-pyrimidin-2-ylamine] | 59 nM
12 | CN[C@@H]1CCN(c2cc(C3CCCC3)nc(N)n2)C1 [Example 4, (R)-4-Cyclopentyl-6-(3-methylamino-pyrrolidin-1-yl)-pyrimidin-2-ylamine] | 1 nM
13 | Cc1nc(N)nc(N2CCNCC2)c1C [Example 25, 4,5-Dimethyl-6-piperazin-1-yl-pyrimidin-2-ylamine] | 286 nM
14 | 4-(4-piperazin-1-yl)-5,6,7,8-tetrahydro-quinazolin-2-ylamine [Example 67] | 17 nM
15 | CN1CCN(c2cc(C3CCCCC3)nc(N)n2)CC1 [Example 52, 4-Cyclohexyl-6-(4-methyl-piperazin-1-yl)-pyrimidin-2-ylamine] | 3 nM

same assay, conditions: Table 2; [3H] histamine competition binding, membranes of SK-N-MC cells transfected with human H4 receptor; average of results

Row | Ki | Compound
16 | 153 nM | CN[C@H]1CCN(c2cc(COC)nc(N)n2)C1 [Example 119, (S)-4-Methoxymethyl-6-(3-methylamino-pyrrolidin-1-yl)-pyrimidin-2-ylamine]
17 | 97 nM | CC1(c2cc(N3CCNCC3)nc(N)n2)CCOCC1 [Example 153, 4-(4-Methyl-tetrahydro-pyran-4-yl)-6-piperazin-1-yl-pyrimidin-2-ylamine]
18 | 31 nM | Nc1nc(C2CCOC2)cc(N2CCNCC2)n1 (single isomer, unassigned; (-)) [Example 193, (−)-4-piperazin-1-yl-6-(tetrahydro-furan-3-yl)-pyrimidin-2-ylamine]
19 | 85 nM | Nc1nc(C2CCOCC2)cc(N2CC[C@@H](N)C2)n1 [Example 175, (R)-4-(3-Amino-pyrrolidin-1-yl)-6-(tetrahydro-pyran-4-yl)-pyrimidin-2-ylamine]
20 | 17 nM | CN1CCN(c2cc(CC3CCCO3)nc(N)n2)CC1 (stereo not drawn) [Example 227, 4-(4-Methyl-piperazin-1-yl)-6-(tetrahydro-furan-2-ylmethyl)-pyrimidin-2-ylamine]
21 | 91 nM | CN[C@@H]1CCN(c2cc(CC3CCCO3)nc(N)n2)C1 (stereo partly drawn) [Example 228, (R)-4-(3-Methylamino-pyrrolidin-1-yl)-6-(tetrahydro-furan-2-ylmethyl)-pyrimidin-2-ylamine]
22 | 281 nM | CC(C)c1cc(N(C)CCN)nc(N)n1 [Example 92, N^4-(2-Amino-ethyl)-6-isopropyl-N^4-methyl-pyrimidine-2,4-diamine]
23 | 12 nM | Nc1nc(Cc2ccsc2)cc(N2CC[C@@H](N)C2)n1 [Example 210, (R)-4-(3-Amino-pyrrolidin-1-yl)-6-thiophen-3-ylmethyl-pyrimidin-2-ylamine]
24 | 4230 nM | Cc1nc(N)nc(N(C)CCN)c1F [Example 203, N^4-(2-Amino-ethyl)-5-fluoro-6,N^4-dimethyl-pyrimidine-2,4-diamine]
25 | 29 nM | Nc1nc(C2CC2c2ccccc2)cc(N2CC[C@@H](N)C2)n1 (stereo in doubt) [Example 157, (R)-4-(3-Amino-pyrrolidin-1-yl)-6-(trans-2-phenyl-cyclopropyl)-pyrimidin-2-ylamine]
26 | 2450 nM | CNCCNc1cc(C2CCOC2)nc(N)n1 (stereo not drawn) [Example 198, N^4-(2-Methylamino-ethyl)-6-(tetrahydro-furan-3-yl)-pyrimidine-2,4-diamine]
27 | 138 nM | CC1(c2cc(N3CC[C@@H](N)C3)nc(N)n2)CCOCC1 [Example 174, (R)-4-(3-Amino-pyrrolidin-1-yl)-6-(4-methyl-tetrahydro-pyran-4-yl)-pyrimidin-2-ylamine]
28 | 12 nM | CN[C@@H]1CCN(c2cc(C3CCOC3)nc(N)n2)C1 (stereo partly drawn) [Example 191, (R)-4-(3-Methylamino-pyrrolidin-1-yl)-6-(tetrahydro-furan-3-yl)-pyrimidin-2-ylamine]
29 | 230 nM | CN[C@@H]1CCN(c2cc(Cc3ccncc3)nc(N)n2)C1 [Example 205, (R)-4-(3-Methylamino-pyrrolidin-1-yl)-6-pyridin-4-ylmethyl-pyrimidin-2-ylamine]
30 | 84 nM | CCCCc1nc(N)nc(N2CCN(C)CC2)c1OC [Example 108, 4-Butyl-5-methoxy-6-(4-methyl-piperazin-1-yl)-pyrimidin-2-ylamine]
31 | 9 nM | Nc1nc(CCc2ccccc2)cc(N2CC[C@@H](N)C2)n1 [Example 178, (R)-4-(3-Amino-pyrrolidin-1-yl)-6-phenethyl-pyrimidin-2-ylamine]
32 | 6 nM | CN1CCN(c2cc(CCc3ccccc3)nc(N)n2)CC1 [Example 179, 4-(4-Methyl-piperazin-1-yl)-6-phenethyl-pyrimidin-2-ylamine]
33 | 464 nM | COCc1cc(N2CCCC(N)C2)nc(N)n1 (stereo in doubt) [Example 225, (R)-4-(3-Amino-piperidin-1-yl)-6-methoxymethyl-pyrimidin-2-ylamine]
34 | 4 nM | CCCCc1cc(N2CC[C@@H](N)C2)nc(N)n1 [Example 135, (R)-4-(3-Amino-pyrrolidin-1-yl)-6-butyl-pyrimidin-2-ylamine]
35 | 8 nM | CN[C@@H]1CCN(c2cc(CCc3ccccc3)nc(N)n2)C1 [Example 180, (R)-4-(3-Methylamino-pyrrolidin-1-yl)-6-phenethyl-pyrimidin-2-ylamine]
36 | 16 nM | CN[C@@H]1CCN(c2cc(CCC(F)(F)F)nc(N)n2)C1 [Example 183, (R)-4-(3-Methylamino-pyrrolidin-1-yl)-6-(3,3,3-trifluoro-propyl)-pyrimidin-2-ylamine]
37 | 14 nM | CC(C)c1cc(N2CC(N)C2)nc(N)n1 [Example 90, 4-(3-Amino-azetidin-1-yl)-6-isopropyl-pyrimidin-2-ylamine]
38 | 2 nM | CN1CCN(c2cc(C3Cc4ccccc4C3)nc(N)n2)CC1 [Example 163, 4-Indan-2-yl-6-(4-methyl-piperazin-1-yl)-pyrimidin-2-ylamine]
39 | 32 nM | Nc1nc(Cc2cccs2)cc(N2CC[C@@H](N)C2)n1 [Example 216, (R)-4-(3-Amino-pyrrolidin-1-yl)-6-thiophen-2-ylmethyl-pyrimidin-2-ylamine]
40 | 33 nM | COc1c(C2CCCC2)nc(N)nc1N1CC(N)C1 [Example 111, 4-(3-Amino-azetidin-1-yl)-6-cyclopentyl-5-methoxy-pyrimidin-2-ylamine]
41 | 32 nM | CC(C)OCc1cc(N2CCN(C)CC2)nc(N)n1 [Example 246, 4-Isopropoxymethyl-6-(4-methyl-piperazin-1-yl)-pyrimidin-2-ylamine]
42 | 6 nM | Nc1nc(C2CCCC2)cc(N2CC(N)C2)n1 [Example 85, 4-(3-Amino-azetidin-1-yl)-6-cyclopentyl-pyrimidin-2-ylamine]
43 | 140 nM | Nc1nc(Cc2ccc(Cl)cc2)cc(N2CC[C@@H](N)C2)n1 [Example 235, (R)-4-(3-Amino-pyrrolidin-1-yl)-6-(4-chloro-benzyl)-pyrimidin-2-ylamine]
44 | 17 nM | Nc1nc(C2CCOC2)cc(N2CCCNCC2)n1 (stereo not drawn) [Example 192, 4-[1,4]-Diazepan-1-yl-6-(tetrahydro-furan-3-yl)-pyrimidin-2-ylamine]

Row | Compound | Ki
45 | CCCCc1cc(N2C[C@H]3CNC[C@H]3C2)nc(N)n1 [Example 140, Butyl-6-(cis-hexahydro-pyrrolo[3,4-c]pyrrol-2-yl)-pyrimidin-2-ylamine] | 397 nM
46 | Nc1nc(C2CCOC2)cc(N2CC3CCCNC3C2)n1 (stereo not drawn) [Example 190, 4-(cis-Octahydro-pyrrolo[3,4-b]pyridin-6-yl)-6-(tetrahydro-furan-3-yl)-pyrimidin-2-ylamine] | 11 nM
47 | Nc1nc(C2CCCC2)cc(N2C[C@H]3CCCN[C@H]3C2)n1 [Example 81, (R,R)-4-Cyclopentyl-6-(octahydro-pyrrolo[3,4-b]pyridin-6-yl)-pyrimidin-2-ylamine] | 2 nM
48 | COc1c(C2CCCC2)nc(N)nc1N1C[C@H]2CCCN[C@H]2C1 [Example 188, (R,R)-4-Cyclopentyl-5-methoxy-6-(octahydro-pyrrolo[3,4-b]pyridin-6-yl)-pyrimidin-2-ylamine] | 18 nM
